Data as given in patent EP3298025B1, “NEW AMINO ACID SEQUENCES WITH MI[…] DERIVED FROM NAJA ATRA CARDIOTOXIN 1 (CTX-1)” (Università degli Studi di Parma, priority 2015, dated 2016).
Values joined by “and” are separate entries in the source; they are usually repeats but may differ in a detail not shown here. Equal values may be shown once. Residues, ends and D or L forms follow the SMILES beside them.

Assays:
MRSA ATCC 43400 = experiment: micro-dilution in liquid medium and transplant on solid medium, Gram-positive bacteria; assay type: cell-based, Staphylococcus aureus; settings: 2 hours at 37°C, transplant on agar
Protocol: (§1) For each bacterial strain 3-5 morphologically similar colonies from fresh cultures were taken and inoculated in Brain Heart Infusion broth, then incubated at 37°C in agitation at 225 r.p.m. for about 3-4 hours. Then the bacterial suspension was centrifuged at 1000 G for 20 minutes and the pellet resuspended in phosphate buffer pH 7, 10 mM. The turbidity of the bacterial suspension was measured using a spectrophotometer with absorbance of 600 nm; the range 0,08-0,13 equates to about 10^8 cfu/ml. The bacterial suspension was diluted 1:100 in phosphate buffer 10mM to obtain a bacterial concentration of about 10^6 cfu/ml. Within 30 minutes 50 µl of the suspension 10^6 cfu/ml were inoculated in each well of the microtiter plate, to obtain a bacterial concentration of about 5x10^5 cfu/ml.
The peptides ability to inhibit the bacterial growth in liquid cultures was tested. 50 µl of each peptides solutions of about 0.2-50 µM were added in microtiter plates with 96 wells with liquid culture medium and one of these bacterial strains: Staphylococcus aureus ATCC 25923, MRSA ATCC 43300, Streptococcus agalactiae ATCC 13813 and Enterococcus hirae ATCC 10541. […]
The bacterial suspension and differing peptides concentrations were put in contact for about 2 hours at 37°C. […] After an incubation time of 24 hours at 37°C, the bacterial colonies (cfu) were counted.

E. coli ATCC 25922 = experiment: antimicrobial activity in presence of NaCl; assay type: cell-based
Protocol: Peptides were tested in the ability to inhibit bacterial growth in liquid medium. 50 µl of peptides at a concentration between 0.2 µM and 50 µM were […] E. coli ATCC 25922, Pseudomonas aeruginosa ATCC 27853 and Staphylococcus aureus methicillin resistant ATCC 43300. After 2 hours incubation at 37°C, bacteria were plated on solid culture medium. Bacterial cultures were cultivated without peptides as growth control.
(§2) The bacterial suspension and peptides at differing concentrations were put in contact for about 2 hours at 37°C. After this incubation, 20 µl from every well of the plate were transplanted on solid culture medium, McConkey agar for Gram-negative and Columbia agar with 5% of bovine erythrocytes for Gram-positive bacteria. The inoculum was evenly distributed on the agar medium using a single use sterile handle. After an incubation time of 24 hours at 37°C, the bacterial colonies (cfu) were counted.

MRSA ATCC 43300 = experiment: antimicrobial activity in presence of NaCl; assay type: cell-based, Staphylococcus aureus
Protocol: Peptides were tested in the ability to inhibit bacterial growth in liquid medium. 50 µl of peptides at a concentration […] E. coli ATCC 25922, Pseudomonas aeruginosa ATCC 27853 and Staphylococcus aureus methicillin resistant ATCC 43300. After 2 hours incubation at 37°C, bacteria were plated on solid culture medium. Bacterial cultures were cultivated without peptides as growth control.
as §2

[1] = system: Gram-negative tested bacteria; experiment: micro-dilution and transplant on agar, summary over Gram-negative panel; assay type: cell-based; settings: almost all Gram-negative tested bacteria
Protocol: as §1, with “range 0.08-0.13” for “range 0,08-0,13”, “suspension (10^6 cfu/ml)” for “suspension 10^6 cfu/ml”
The peptides ability to inhibit the bacterial growth in liquid cultures was tested. 50 µl of each peptides solutions of about 0,2-50 µM were added in microtiter plates with 96 wells with U-shaped bottom, containing the liquid culture medium and one of these bacterial strains: E coli ATCC 25922, Pseudomonas. […]
The bacterial suspension and peptides were put in contact for 2 hours at 37°C, with differing concentrations of the peptide. […] After an incubation time of 24 hours at 37°C, the bacterial colonies (cfu) were counted.

tested fungal strains = experiment: micro-dilution and transplant on solid medium, summary over yeast panel; assay type: cell-based; settings: over Candida albicans ATCC 10231, Candida glabrata ATCC 2001 and Malassetia pachydermatis ATCC 14522
Protocol: Candida albicans ATCC 10231, Candida glabrata ATCC 2001 and Malassetia pachydermatis ATCC 14522 were cultivated in Czapek-Dox broth (DIFCO) medium for 48-72 hours. On the day of the test the fungal culture was centrifuged at 1700G for 15 minutes and the pellet resuspended in phosphate buffer, then put in agitation on an electric vortex to disrupt fungal cell aggregations. The suspension was diluted to get a final optical density of 0,5 of the McFarland scale (about 1-5x10^6 cell/ml) (Branda J.A., Krantz A. Effect of yeast on automated cell counting. Am J Clin Pathol., 2006:126, 248-254.).
Peptides ability to inhibit the fungal growth in liquid cultures was tested. 50 µl of each peptides solutions of about 0.2-50 µM were added in microtiter plates with 96 wells with U-shaped bottom, with liquid culture medium and one of these fungi: Candida albicans ATCC 10231, Candida glabrata ATCC 2001 and Malassetia pachydermatis ATCC 14522. After 2 hours of incubation at 37°C, fungal suspensions were plated on solid culture medium, agar Sabouraud. Fungal cultures were cultivated without peptides as growth control.
the fungal suspension and peptides at differing concentrations were in contact for about 2 hours at 37°C. […] After an incubation time of 24 hours at 37°C, the fungal colonies (cfu) were counted.

[2] = 125 mM NaCl, peptide 12.5 µg/ml
[3] = 250 mM NaCl, peptide 12.5 µg/ml

## CC[C@H](C)[C@H](NC(=O)[C@H](CCCCN)NC(=O)[C@H](Cc1ccc(O)cc1)NC(=O)[C@H](CS)NC(=O)[C@H](CC(C)C)NC(=O)[C@H](CC(N)=O)NC(=O)[C@H](CCCCN)NC(=O)CNC(=O)[C@H](C)NC(=O)[C@@H]1CCCN1C(=O)[C@H](CS)NC(=O)[C@@H](NC(=O)[C@H](CCCCN)NC(=O)[C@H](CO)NC(=O)[C@H](C)NC(=O)[C@@H](NC(=O)[C@@H]1CCCN1C(=O)[C@@H](NC(=O)[C@H](CC(C)C)NC(=O)[C@@H](N)CCCCN)[C@@H](C)CC)[C@@H](C)CC)[C@@H](C)O)C(=O)O [NCP-0, K LIPIA SKT CPA GKN LCY KI] (H-KLIPIASKTCPAGKNLCYKI-OH; N-terminus and C-terminus assumed)
MRSA ATCC 43400
  LD90: > 100 µg/ml and > 46.3 µM
  LD99: > 200 µg/ml and > 92.6 µM
E. coli ATCC 25922; 10 mM NaCl, peptide 12.5 µg/ml
  Antimicrobial activity (% to control): 0%
E. coli ATCC 25922; 10 mM NaCl, peptide 100 µg/ml
  Antimicrobial activity (% to control): 3%
E. coli ATCC 25922; [2]
  Antimicrobial activity (% to control): 0%
E. coli ATCC 25922; 125 mM NaCl, peptide 100 µg/ml
  Antimicrobial activity (% to control): 0%
E. coli ATCC 25922; [3]
  Antimicrobial activity (% to control): 0%
E. coli ATCC 25922; 250 mM NaCl, peptide 100 µg/ml
  Antimicrobial activity (% to control): 0%
MRSA ATCC 43300; 10 mM NaCl, peptide 12.5 µg/ml
  Antimicrobial activity (% to control): 0%
MRSA ATCC 43300; 10 mM NaCl, peptide 100 µg/ml
  Antimicrobial activity (% to control): 2%
MRSA ATCC 43300; [2]
  Antimicrobial activity (% to control): 0%
MRSA ATCC 43300; 125 mM NaCl, peptide 100 µg/ml
  Antimicrobial activity (% to control): 0%
MRSA ATCC 43300; [3]
  Antimicrobial activity (% to control): 0%
MRSA ATCC 43300; 250 mM NaCl, peptide 100 µg/ml
  Antimicrobial activity (% to control): 0%
[1]
  antimicrobial activity: scarcely active
Tested fungal strains
  LD99: > 150 µg/ml and > 69.2 µM
